Key:
[1] = target: T1, TfHex (β-N-acetylhexosaminidase from Talaromyces flavus) (Talaromyces flavus, UniProt G5DAA0, E332K); experiment: discontinuous p-nitrophenolate release assay, non-linear regression; assay type: biochemical; settings: McIlvaine buffer pH 5.0, 25 °C; not measured to full saturation, estimate only
T1 construct: secreted via alpha-factor, pPICZαA, Pichia pastoris KM71H, cation-exchange purified; tetramer of two catalytic subunits and two non-covalently linked propeptides
From the text: discontinuous p-nitrophenolate release assay, non-linear regression on TfHex (β-N-acetylhexosaminidase from Talaromyces flavus) | for Glu332Lys TfHex, only estimates of kinetic parameters are presented

[2] = target: T2, TfHex (β-N-acetylhexosaminidase from Talaromyces flavus) (Talaromyces flavus, UniProt G5DAA0, E332H); experiment: as above; assay type: biochemical; settings: McIlvaine buffer pH 5.0, 25 °C; not measured to full saturation
T2 construct: secreted via alpha-factor, pPICZαA, Pichia pastoris KM71H, cation-exchange purified; tetramer of two catalytic subunits and two non-covalently linked propeptides
T2 sequence (G5DAA0 entry or part of it E332H): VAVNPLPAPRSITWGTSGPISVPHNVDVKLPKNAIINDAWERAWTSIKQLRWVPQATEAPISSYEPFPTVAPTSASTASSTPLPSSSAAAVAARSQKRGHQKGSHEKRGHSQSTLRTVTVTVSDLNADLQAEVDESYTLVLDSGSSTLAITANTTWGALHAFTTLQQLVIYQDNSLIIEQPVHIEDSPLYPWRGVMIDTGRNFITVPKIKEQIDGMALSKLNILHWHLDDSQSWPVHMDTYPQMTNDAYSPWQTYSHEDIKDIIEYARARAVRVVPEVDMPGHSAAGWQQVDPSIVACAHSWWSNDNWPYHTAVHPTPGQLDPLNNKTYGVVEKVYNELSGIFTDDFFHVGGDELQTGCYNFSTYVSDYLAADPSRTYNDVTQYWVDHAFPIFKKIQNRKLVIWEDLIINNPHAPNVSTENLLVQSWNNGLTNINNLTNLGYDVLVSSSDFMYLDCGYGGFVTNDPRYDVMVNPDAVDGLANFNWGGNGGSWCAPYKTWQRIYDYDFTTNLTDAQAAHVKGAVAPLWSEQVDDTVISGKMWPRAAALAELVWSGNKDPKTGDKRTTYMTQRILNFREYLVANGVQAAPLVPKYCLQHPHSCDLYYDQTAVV

T1 sequence (G5DAA0 entry or part of it E332K): as the sequence (G5DAA0 entry or part of it E332H) above, with H315K counted along it

- Km [1]: > 7 mM
- Km [2]: > 7 mM
SMILES: CC(=O)N[C@H]1[C@H](Oc2ccc([N+](=O)[O-])cc2)O[C@H](CO)[C@@H](O)[C@@H]1O [pNP-GlcNAc, p-Nitrophenyl 2-acetamido-2-deoxy-β-D-glucopyranoside]

Reference: article PMC9604439, “Mutation Hotspot for Changing the Substrate Specificity of β-N-Acetylhexosaminidase: A Library of GlcNAcases” (International Journal of Molecular Sciences, 2022)
